Source: patent publication US7968548B2, “Melanocortin receptor-specific piperazine compounds with diamine groups” (Palatin Technologies, Inc., priority 2005, dated 2011)

What was measured:
MC1-R = target: T1, MC1-R (Mus musculus, UniProt Q01727); experiment: Competitive inhibition binding assay using [I125]-NDP-α-MSH, B-16 mouse melanoma cell membranes; conditions: B-16 mouse melanoma cells; for inhibition at 1 µM: 1 μM compound
T1 construct: from B-16 mouse melanoma cells (containing endogenous MC1-R); endogenous in cells; host or cells: B-16 mouse melanoma cells (membrane homogenates)
Method: (§1) A competitive inhibition binding assay was performed using membrane homogenates prepared from HEK-293 cells that express recombinant hMC4-R, hMC3-R, or hMC5-R, and from B-16 mouse melanoma cells (containing endogenous MC1-R). In some instances, HEK-293 cells that express recombinant hMC1-R were employed. In the examples that follow, all MC3-R, MC4-R and MC5-R values are for human recombinant receptors. MC1-R values are for B-16 mouse melanoma cells, unless the heading is “hMC1-R”, in which case the value is for human recombinant MC1-R. Assays were performed in 96 well GF/B Millipore multiscreen filtration plates (MAFB NOB10) pre-coated with 0.5% bovine serum albumin (Fraction V). […] After incubation for 60 minutes at 37° C., the assay mixture was filtered and the membranes washed three times with ice-cold buffer. Filters were dried and counted in a gamma counter for bound radioactivity. […] Maximal specific binding (100%) was defined as the difference in radioactivity (cpm) bound to cell membranes in the absence and presence of 1 μM NDP-α-MSH. […] Each assay was conducted in triplicate and the actual mean values are described, with results less than 0% reported as 0%. Ki values for test compounds were determined using Graph-Pad Prism® curve-fitting software.

MC3-R = target: T2, MC3-R (Homo sapiens, UniProt P41968); experiment: Competitive inhibition binding assay using [I125]-NDP-α-MSH, HEK-293 membranes, recombinant hMC3-R; conditions: for inhibition at 1 µM: 1 μM compound
T2 construct: expressed in transfected cells; host or cells: HEK-293
Method: as §1

MC5-R = target: T3, MC5-R (Homo sapiens, UniProt P33032); experiment: Competitive inhibition binding assay using [I125]-NDP-α-MSH, HEK-293 membranes, recombinant hMC5-R; conditions: for inhibition at 1 µM: 1 μM compound
T3 construct: expressed in transfected cells; host or cells: HEK-293
Method: as §1

MC4-R [1] = target: T4, MC4-R (Homo sapiens, UniProt P32245); experiment: Competitive inhibition binding assay using [I125]-NDP-α-MSH, HEK-293 membranes, recombinant hMC4-R; set-up: expressed in transfected cells; host or cells: HEK-293; conditions: for inhibition at 1 µM: 1 μM compound
Method: as §1

MC4-R [2] = target: T4, MC4-R; experiment: Assay for agonist activity: cAMP accumulation in HEK-293 cells that express MC4-R; format: cell-based; set-up: expressed in transfected cells; host or cells: HEK-293; conditions: HEK293; cell line that expresses MC4-R; relative to NDP-α-MSH; read-out: maximum effect observed, % of the maximum achieved with NDP-α-MSH (cAMP)
Method: Assay for agonist activity. Accumulation of intracellular cAMP was examined as a measure of the ability of the test compounds to elicit a functional response in HEK-293 cells that express MC4-R. Confluent HEK-293 cells that express recombinant hMC4-R were detached from culture plates by incubation in enzyme-free cell dissociation buffer. Dispersed cells were suspended in Earle's Balanced Salt Solution containing 10 mM HEPES (pH 7.5), 1 mM MgCl2, 1 mM glutamine, 0.5% albumin and 0.3 mM 3-isobutyl-1-methyl-xanthine (IBMX), a phosphodiesterase inhibitor. The cells were plated in 96-well plates at a density of 0.5×10^5 cells per well and pre-incubated for 30 minutes. Cells were exposed for 1 hour at 37° C. to test compounds dissolved in DMSO (final DMSO concentration of 1%) at a concentration range of 0.05-5000 nM in a total assay volume of 200 μL. NDP-α-MSH was used as the reference agonist. At the end of the incubation period, cells were disrupted by the addition of 50 μL of lysis buffer (cAMP EIA kit, Amersham) followed by vigorous pipetting. Levels of cAMP in the lysates were determined using a cAMP EIA kit (Amersham). Data analysis was performed by nonlinear regression analysis with Graph-Pad Prism® software. The maximum efficacies of the test compounds were compared to that achieved by the reference melanocortin agonist NDP-αMSH.

[3] = Mouse model IP feeding studies in fasted animals (food intake); format: in vivo; conditions: 3 mg/kg, 20 hours
Method: (§2) Food intake and body weight after IN and IP dosing. Changes in food intake and body weight were evaluated for selected compounds. Male C57BL/6 mice were obtained from Jackson labs (Bar Harbor, Me.). Animals were individually housed in conventional plexiglass hanging cages and maintained on a controlled 12 hour on/off light cycle. Water and pelleted (Harlan Teklad 2018 18% Protein Rodent Diet) food was provided ad libitum. The mice were dosed IP (by intraperitoneal injection) after a 24 hour fast or IN (by intranasal administration) with vehicle or selected compounds (0.1-3 mg/kg, and in some cases up to 10 mg/kg). All animals were dosed once a day (or up to four consecutive days) at the start of the “lights off” period. The changes in food intake for the 4 hour and 20 hour period after dosing relative to control animals administered vehicle were determined. Body weights were determine 4 hours prior to dosing and 20 hours after dosing, and the change in body weight relative to control animals administered vehicle were determined.

[4] = Mouse model IN feeding studies (body weight); format: in vivo; conditions: 20 hours
Method: as §2

MC4-R [5] = target: T4, MC4-R; experiment: Competitive binding assay using [I125]-AgRP (83-132); set-up: expressed in transfected cells; conditions: hMC4-R membranes
Method: Competitive binding assay using [I^125]—AgRP (83-132). Competitive binding studies using [I^125]—AgRP (83-132) were carried out using membrane homogenates isolated from cells that express hMC4-R. The assays were performed in 96-well GF/B Millipore multiscreen filtration plates (MAFB NOB10) pre-coated with 0.5% bovine serum albumin (Fraction V). The assay mixture contained 25 mM HEPES buffer (pH 7.5) with 100 mM NaCl, 2 mM CaCl2, 2 mM MgCl2, 0.3 mM 1,10-phenanthroline, 0.5% bovine serum albumin, membrane homogenates, radioligand [I^125]—AgRP (83-132) (Perkin Elmer) and increasing concentrations of compounds in a total volume of 200 μL. Binding was measured at radioligand concentrations of 0.2 nM. After incubating for 1 hour at 37° C., the reaction mixture was filtered and washed with assay buffer containing 500 mM NaCl. The dried discs were punched out from the plate and counted on a gamma counter. […] Ki values for test compounds were determined using Graph-Pad Prism® curve-fitting software.

hMC1-R = target: T5, hMC1-R (Homo sapiens, UniProt Q01726); experiment: Competitive inhibition binding assay using [I125]-NDP-α-MSH, HEK-293 membranes, recombinant hMC1-R; conditions: human recombinant MC1-R
T5 construct: expressed in transfected cells; host or cells: HEK-293
Method: as §1

T3 sequence (P33032 whole entry): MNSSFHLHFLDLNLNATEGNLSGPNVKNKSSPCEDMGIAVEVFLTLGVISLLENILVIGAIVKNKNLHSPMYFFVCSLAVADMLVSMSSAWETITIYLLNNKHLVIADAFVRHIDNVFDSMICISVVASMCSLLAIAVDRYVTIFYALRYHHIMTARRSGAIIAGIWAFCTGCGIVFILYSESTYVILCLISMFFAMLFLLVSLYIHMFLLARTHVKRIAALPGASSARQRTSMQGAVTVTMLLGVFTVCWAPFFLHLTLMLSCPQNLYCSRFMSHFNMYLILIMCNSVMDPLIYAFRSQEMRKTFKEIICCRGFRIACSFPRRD
T4 sequence (P32245 whole entry): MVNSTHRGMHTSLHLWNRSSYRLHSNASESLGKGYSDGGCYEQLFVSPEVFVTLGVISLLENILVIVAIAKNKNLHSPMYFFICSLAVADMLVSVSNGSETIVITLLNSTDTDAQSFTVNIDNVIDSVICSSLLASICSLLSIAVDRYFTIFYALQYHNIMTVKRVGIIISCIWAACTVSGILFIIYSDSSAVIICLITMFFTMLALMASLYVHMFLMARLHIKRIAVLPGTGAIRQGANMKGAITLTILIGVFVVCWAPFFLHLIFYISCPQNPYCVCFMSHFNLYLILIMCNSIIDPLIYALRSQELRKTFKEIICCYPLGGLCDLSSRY
T1 sequence (Q01727 whole entry): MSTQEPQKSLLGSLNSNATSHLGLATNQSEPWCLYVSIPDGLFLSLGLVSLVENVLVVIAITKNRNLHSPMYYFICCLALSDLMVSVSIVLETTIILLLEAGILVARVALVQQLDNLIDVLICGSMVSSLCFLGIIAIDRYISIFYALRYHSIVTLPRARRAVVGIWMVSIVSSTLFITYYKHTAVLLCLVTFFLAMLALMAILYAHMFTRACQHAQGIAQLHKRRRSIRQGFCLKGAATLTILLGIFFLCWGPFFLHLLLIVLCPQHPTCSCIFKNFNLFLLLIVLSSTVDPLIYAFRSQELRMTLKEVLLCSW
T2 sequence (P41968 whole entry): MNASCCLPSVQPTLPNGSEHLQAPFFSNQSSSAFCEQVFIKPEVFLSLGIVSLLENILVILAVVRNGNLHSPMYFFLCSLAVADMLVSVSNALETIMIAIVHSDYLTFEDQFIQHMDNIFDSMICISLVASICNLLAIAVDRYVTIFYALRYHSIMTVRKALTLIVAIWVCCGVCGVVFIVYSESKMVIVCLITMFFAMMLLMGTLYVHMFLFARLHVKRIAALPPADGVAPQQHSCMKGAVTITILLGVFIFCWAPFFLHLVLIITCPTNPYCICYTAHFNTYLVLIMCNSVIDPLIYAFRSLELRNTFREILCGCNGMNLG
T5 sequence (Q01726 whole entry): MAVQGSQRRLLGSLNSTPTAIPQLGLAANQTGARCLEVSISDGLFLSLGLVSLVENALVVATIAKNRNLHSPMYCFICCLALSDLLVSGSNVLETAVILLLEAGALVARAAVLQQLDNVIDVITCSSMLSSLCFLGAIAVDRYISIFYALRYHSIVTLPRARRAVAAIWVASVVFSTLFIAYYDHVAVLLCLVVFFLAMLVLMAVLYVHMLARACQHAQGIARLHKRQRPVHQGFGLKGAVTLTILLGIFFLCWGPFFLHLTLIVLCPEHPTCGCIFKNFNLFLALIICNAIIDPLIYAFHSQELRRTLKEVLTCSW

Row | Compound | inhibition at 1 µM (MC1-R) [%] | Ki (MC1-R) [nM] | Ki (MC3-R) [nM] | inhibition at 1 µM (MC3-R) [%] | Ki (MC5-R) [nM] | inhibition at 1 µM (MC5-R) [%] | Ki (MC4-R [1]) [nM] | inhibition at 1 µM (MC4-R [1]) [%] | Emax (MC4-R [2]) [%] | Ki (MC4-R [5]) [nM] | average decrease in food intake compared to control animals [3] [%] | average decrease in body weight compared to control animals ([4]; 0.1 mg/kg) [%] | average decrease in body weight compared to control animals ([4]; 0.3 mg/kg) [%] | average decrease in body weight compared to control animals ([4]; 1 mg/kg) [%] | Ki (hMC1-R) [nM]
1 | CC(C)C[C@@H]1CN(C(=O)[C@H](N)Cc2ccc(Cl)cc2Cl)[C@@H](CCCCNCCN)CN1C(=O)Cc1ccc2ccccc2c1 [Example 1, (R)-2-Amino-1-[(2S,5R)-2-[4-(2-amino-ethylamino)-butyl]-5-isobutyl-4-(2-naphthalen-2-yl-acetyl)-piperazin-1-yl]-3-(2,4-dichloro-phenyl)-propan-1-one] | 55 | 102 | 250 | 71 | 301 | 68 | 18 | 98 | 61 |  |  |  |  |  | 
2 | CC(C)C[C@@H]1CN(C[C@H](N)Cc2ccc(Cl)cc2Cl)[C@@H](CCCCNCCN)CN1C(=O)Cc1ccc2ccccc2c1 [Example 2, 1-{(2R,5S)-4-[(R)-2-Amino-3-(2,4-dichloro-phenyl)-propyl]-5-[4-(2-amino-ethylamino)-butyl]-2-isobutyl-piperazin-1-yl}-2-naphthalen-2-yl-ethanone] |  | 558 | 190 |  | 143 |  | 23 |  | 16 | 72 | 28 | 2.5 | 3 | 4.7 | 
3 | CC(C)C[C@@H]1CN(C[C@H](N)Cc2ccc(Cl)cc2Cl)[C@@H](CCCNCCN)CN1C(=O)Cc1ccc2ccccc2c1 [Example 18, 1-{(2R,5S)-4-[(R)-2-Amino-3-(2,4-dichloro-phenyl)-propyl]-5-[3-(2-amino-ethylamino)-propyl]-2-isobutyl-piperazin-1-yl}-2-naphthalen-2-yl-ethanone] |  |  | 297 |  | 188 |  | 106 |  |  |  | 30 | 3 | 3.5 | 6.2 | 359

More lines, main results first:

Row | inhibition at 1 µM (MC1-R) [%] | Ki (MC1-R) [nM] | Ki (MC3-R) [nM] | inhibition at 1 µM (MC3-R) [%] | Ki (MC5-R) [nM] | inhibition at 1 µM (MC5-R) [%] | Ki (MC4-R [1]) [nM] | inhibition at 1 µM (MC4-R [1]) [%] | Emax (MC4-R [2]) [%] | Ki (MC4-R [5]) [nM] | Compound | average decrease in food intake compared to control animals [3] [%] | average decrease in body weight compared to control animals ([4]; 0.1 mg/kg) [%] | average decrease in body weight compared to control animals ([4]; 0.3 mg/kg) [%] | average decrease in body weight compared to control animals ([4]; 1 mg/kg) [%] | Ki (hMC1-R) [nM]
4 | 26 |  |  | 28 |  | 48 |  | 52 |  |  | Cc1ccc(C[C@H](CN2C[C@@H](C)N(C(=O)Cc3ccc4ccccc4c3)C[C@@H]2CCCN(C)C2CCCCC2N(C)C)N(C)C)c(C)c1 (stereo partly drawn) [Example 8] |  |  |  |  | 
5 | 0 |  |  | 9 |  | 51 |  | 49 |  |  | Cc1ccc(C[C@H](CN2C[C@@H](C)N(C(=O)Cc3ccc4ccccc4c3)C[C@@H]2CCCN(C)CCN(C)C)N(C)C)c(C)c1 [Example 9, 1-((2R,5S)-4-[(R)-2-Dimethylamino-3-(2,4-dimethyl-phenyl)-propyl]-5-{3-[(2-dimethylamino-ethyl)-methyl-amino]-propyl}-2-methyl-piperazin-1-yl)-2-naphthalen-2-yl-ethaone] |  |  |  |  | 
6 | 28 |  |  | 15 |  | 54 |  | 47 |  |  | Cc1ccc(C[C@H](CN2C[C@@H](C)N(C(=O)Cc3ccc4ccccc4c3)C[C@@H]2CCCN2CCN(C)CC2)N(C)C)c(C)c1 [Example 10, 1-{(2R,5S)-4-[(R)-2-Dimethylamino-3-(2,4-dimethyl-phenyl)-propyl]-2-methyl-5-[3-(4-methyl-piperazin-1-yl)-propyl]-piperazin-1-yl}-2-naphthalen-2-I-ethanone] |  |  |  |  | 
